Experimental data as given in patent US6096930A, “Herbicidal cyclohexane-1,3-dione derivatives and their preparation process” (Korea Research Institute of Chemical Technology, priority 1994, dated 2000).

Experiments:
Format in all cases: in vivo
SOLNI [1] = experiment: Herbicidal activity, upland test, pre-emergence
Protocol: (§1) The sterilized sandy loam soil is filled in test pot having a surface area of 348 cm^2 for upland test conditions or 115 cm^2 for paddy test species were planted in furrows.
(§2) For the pre-emergent tests, were sprayed on the soil one day after planting test compound in a mixture of acetone and 7 ml of the water containing up to 0.1% Tween 20.
(§3) The concentration of the test compound in solution was varied to give a range of application rates, generally 4.0 kg/ha and submultiples thereof. The pots were placed in a greenhouse and watered regularly at the soil surface for 21 days and herbicidal effects were visually rated by a percent control.
(§4) The herbicidal activity data were taken visually by percent control, wherein 0 signifies no herbicidal effect and 100 signifies complete kill.

ABUTH [2] = experiment: Herbicidal activity, upland test, pre-emergence
Protocol: as §1, §2, §3, §4

ORYSA = experiment: Herbicidal activity, upland test, pre-emergence
Protocol: as §1, §2, §3, §4

GLXMX = experiment: Herbicidal activity, upland test, pre-emergence
Protocol: as §1, §2, §3, §4

AESIN = experiment: Herbicidal activity, upland test, pre-emergence
Protocol: as §1, §2, §3, §4

SORBI = experiment: Herbicidal activity, upland test, pre-emergence
Protocol: as §1, §2, §3, §4

ECHOR = experiment: Herbicidal activity, upland test, pre-emergence
Protocol: as §1, §2, §3, §4

ZEAMX = experiment: Herbicidal activity, upland test, pre-emergence
Protocol: as §1, §2, §3, §4

TRZAW = experiment: Herbicidal activity, upland test, pre-emergence
Protocol: as §1, §2, §3, §4

DIGSA = experiment: Herbicidal activity, upland test, pre-emergence
Protocol: as §1, §2, §3, §4

GOSHI = experiment: Herbicidal activity, upland test, pre-emergence
Protocol: as §1, §2, §3, §4

BROJA = experiment: Herbicidal activity, upland test, pre-emergence
Protocol: as §1, §2, §3, §4

PANDI = experiment: Herbicidal activity, upland test, pre-emergence
Protocol: as §1, §2, §3, §4

SOLNI [3] = experiment: Herbicidal activity, upland test, post-emergence
From the text: as §1
(§5) The pots for the post-emergent tests were placed in a greenhouse and watered for 9~14 days, then the foliage of test plants was sprayed with a solution of the test compound in a mixture of acetone and water containing a small amount of Tween 20.
(§6) After spraying the plants were kept for one day, then watered regularly for 14 to 21 days, and herbicidal activity data were recorded.
as §4

ABUTH [4] = experiment: Herbicidal activity, upland test, post-emergence; settings: 0.004 kg/ha
From the text: as §1, §5, §6, §4

`CCON=C(CC)C1=C(O)CC(c2c(C)c(C)c3c(c2C)CC(C)(C)C3)CC1=O` (stereo not shown) [Compound 2] was tested. Which “Herbicidal activity, SOLNI” value (SOLNI [1]; 0.016 kg/ha) did it give?
Its value is 0 % inhibition.

What about the “Herbicidal activity, SOLNI” value (SOLNI [1]; 0.063 kg/ha) of the same compound?
The value was 0 % inhibition.

And the “Herbicidal activity, SOLNI” value (SOLNI [1]; 1.000 kg/ha)?
Its value is 0 % inhibition.

What about the “Herbicidal activity, SOLNI” value (SOLNI [1]; 1.250 kg/ha) of the same compound?
The value was 0 % inhibition.

And the “Herbicidal activity, ABUTH” value (ABUTH [2]; 0.016 kg/ha)?
Its value is 0 % inhibition.

And the “Herbicidal activity, ABUTH” value (ABUTH [2]; 0.063 kg/ha)?
Its value is 0 % inhibition.

And the “Herbicidal activity, ABUTH” value (ABUTH [2]; 1.000 kg/ha)?
Its value is 0 % inhibition.

What about the “Herbicidal activity, ABUTH” value (ABUTH [2]; 1.250 kg/ha) of the same compound?
The value was 0 % inhibition.

And the “Herbicidal activity, ORYSA” value (ORYSA; 0.016 kg/ha)?
Its value is 0 % inhibition.

What about the “Herbicidal activity, ORYSA” value (ORYSA; 0.063 kg/ha) of the same compound?
Its value is 0 % inhibition.

And the “Herbicidal activity, ORYSA” value (ORYSA; 1.000 kg/ha)?
Its value is 100 % inhibition.

What about the “Herbicidal activity, ORYSA” value (ORYSA; 1.250 kg/ha) of the same compound?
The value was 60 % inhibition.

What about the “Herbicidal activity, GLXMX” value (GLXMX; 0.016 kg/ha) of the same compound?
The value was 0 % inhibition.

And the “Herbicidal activity, GLXMX” value (GLXMX; 0.063 kg/ha)?
Its value is 0 % inhibition.

What about the “Herbicidal activity, GLXMX” value (GLXMX; 1.000 kg/ha) of the same compound?
Its value is 0 % inhibition.

What about the “Herbicidal activity, GLXMX” value (GLXMX; 1.250 kg/ha) of the same compound?
The value was 0 % inhibition.

What about the “Herbicidal activity, AESIN” value (AESIN; 0.016 kg/ha) of the same compound?
The value was 0 % inhibition.

What about the “Herbicidal activity, AESIN” value (AESIN; 0.063 kg/ha) of the same compound?
Its value is 0 % inhibition.

And the “Herbicidal activity, AESIN” value (AESIN; 1.000 kg/ha)?
The value was 0 % inhibition.

What about the “Herbicidal activity, AESIN” value (AESIN; 1.250 kg/ha) of the same compound?
The value was 0 % inhibition.

And the “Herbicidal activity, SORBI” value (SORBI; 0.016 kg/ha)?
The value was 0 % inhibition.

What about the “Herbicidal activity, SORBI” value (SORBI; 0.063 kg/ha) of the same compound?
Its value is 0 % inhibition.

And the “Herbicidal activity, SORBI” value (SORBI; 1.000 kg/ha)?
The value was 100 % inhibition.

And the “Herbicidal activity, SORBI” value (SORBI; 1.250 kg/ha)?
The value was 30 % inhibition.

And the “Herbicidal activity, ECHOR” value (ECHOR; 0.016 kg/ha)?
The value was 0 % inhibition.

And the “Herbicidal activity, ECHOR” value (ECHOR; 0.063 kg/ha)?
The value was 40 % inhibition.

What about the “Herbicidal activity, ECHOR” value (ECHOR; 1.000 kg/ha) of the same compound?
Its value is 100 % inhibition.

And the “Herbicidal activity, ECHOR” value (ECHOR; 1.250 kg/ha)?
The value was 100 % inhibition.

And the “Herbicidal activity, ZEAMX” value (ZEAMX; 0.016 kg/ha)?
Its value is 0 % inhibition.

And the “Herbicidal activity, ZEAMX” value (ZEAMX; 0.063 kg/ha)?
The value was 0 % inhibition.

What about the “Herbicidal activity, ZEAMX” value (ZEAMX; 1.000 kg/ha) of the same compound?
The value was 100 % inhibition.

What about the “Herbicidal activity, ZEAMX” value (ZEAMX; 1.250 kg/ha) of the same compound?
The value was 40 % inhibition.

And the “Herbicidal activity, TRZAW” value (TRZAW; 0.016 kg/ha)?
Its value is 0 % inhibition.

And the “Herbicidal activity, TRZAW” value (TRZAW; 0.063 kg/ha)?
Its value is 0 % inhibition.

What about the “Herbicidal activity, TRZAW” value (TRZAW; 1.000 kg/ha) of the same compound?
Its value is 80 % inhibition.

And the “Herbicidal activity, TRZAW” value (TRZAW; 1.250 kg/ha)?
The value was 20 % inhibition.

What about the “Herbicidal activity, DIGSA” value (DIGSA; 0.016 kg/ha) of the same compound?
Its value is 0 % inhibition.

What about the “Herbicidal activity, DIGSA” value (DIGSA; 0.063 kg/ha) of the same compound?
Its value is 60 % inhibition.

And the “Herbicidal activity, DIGSA” value (DIGSA; 1.000 kg/ha)?
Its value is 100 % inhibition.

What about the “Herbicidal activity, DIGSA” value (DIGSA; 1.250 kg/ha) of the same compound?
Its value is 100 % inhibition.

What about the “Herbicidal activity, GOSHI” value (GOSHI; 0.016 kg/ha) of the same compound?
Its value is 0 % inhibition.

What about the “Herbicidal activity, GOSHI” value (GOSHI; 0.063 kg/ha) of the same compound?
The value was 0 % inhibition.

And the “Herbicidal activity, GOSHI” value (GOSHI; 1.000 kg/ha)?
The value was 0 % inhibition.

And the “Herbicidal activity, GOSHI” value (GOSHI; 1.250 kg/ha)?
Its value is 0 % inhibition.

And the “Herbicidal activity, BROJA” value (BROJA; 0.016 kg/ha)?
The value was 0 % inhibition.

What about the “Herbicidal activity, BROJA” value (BROJA; 0.063 kg/ha) of the same compound?
Its value is 20 % inhibition.

What about the “Herbicidal activity, BROJA” value (BROJA; 1.000 kg/ha) of the same compound?
Its value is 100 % inhibition.

What about the “Herbicidal activity, BROJA” value (BROJA; 1.250 kg/ha) of the same compound?
Its value is 60 % inhibition.

What about the “Herbicidal activity, PANDI” value (PANDI; 0.016 kg/ha) of the same compound?
The value was 0 % inhibition.

What about the “Herbicidal activity, PANDI” value (PANDI; 0.063 kg/ha) of the same compound?
The value was 50 % inhibition.

And the “Herbicidal activity, PANDI” value (PANDI; 1.000 kg/ha)?
Its value is 100 % inhibition.

And the “Herbicidal activity, PANDI” value (PANDI; 1.250 kg/ha)?
Its value is 100 % inhibition.

What about the “Herbicidal activity, SOLNI” value (SOLNI [3]; 0.004 kg/ha) of the same compound?
Its value is 0 % inhibition.

And the “Herbicidal activity, SOLNI” value (SOLNI [3]; 0.016 kg/ha)?
Its value is 0 % inhibition.

And the “Herbicidal activity, SOLNI” value (SOLNI [3]; 0.063 kg/ha)?
The value was 0 % inhibition.

What about the “Herbicidal activity, SOLNI” value (SOLNI [3]; 1.000 kg/ha) of the same compound?
Its value is 0 % inhibition.

What about the “Herbicidal activity, SOLNI” value (SOLNI [3]; 1.250 kg/ha) of the same compound?
Its value is 0 % inhibition.

What about the “Herbicidal activity, ABUTH” value (ABUTH [4]) of the same compound?
Its value is 0 % inhibition.
